One experiment concerns the target ErbB2 kinase (Homo sapiens, UniProt P04626). Nature of the experiment: Enzymatic experiment on ErbB2 (HTRF kinEASE-TK). It is filed as biochemical. The essentials:
(§1)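 HTRF kinEASE-TK with biotinylated TK substrate in HEPES pH 7.0 buffer containing MnCl2, MgCl2 and DTT; ErbB2 at 0.06 ng/μl with 4 μM ATP, EGFR at 0.06 units/μl with 1.65 μM ATP, 30 min at room temperature after 5 min enzyme/substrate–compound preincubation. Ten-point 3-fold dilutions; Eu antibody/SA-XL665 detection, 665/620 ratio.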

In a further experiment the target is EGFR kinase (Homo sapiens, UniProt P00533). Description: Enzymatic experiment on EGFR (HTRF kinEASE-TK). It is filed as biochemical. The essentials: as §1
Chain of EGFR kinase (P00533 25-1210): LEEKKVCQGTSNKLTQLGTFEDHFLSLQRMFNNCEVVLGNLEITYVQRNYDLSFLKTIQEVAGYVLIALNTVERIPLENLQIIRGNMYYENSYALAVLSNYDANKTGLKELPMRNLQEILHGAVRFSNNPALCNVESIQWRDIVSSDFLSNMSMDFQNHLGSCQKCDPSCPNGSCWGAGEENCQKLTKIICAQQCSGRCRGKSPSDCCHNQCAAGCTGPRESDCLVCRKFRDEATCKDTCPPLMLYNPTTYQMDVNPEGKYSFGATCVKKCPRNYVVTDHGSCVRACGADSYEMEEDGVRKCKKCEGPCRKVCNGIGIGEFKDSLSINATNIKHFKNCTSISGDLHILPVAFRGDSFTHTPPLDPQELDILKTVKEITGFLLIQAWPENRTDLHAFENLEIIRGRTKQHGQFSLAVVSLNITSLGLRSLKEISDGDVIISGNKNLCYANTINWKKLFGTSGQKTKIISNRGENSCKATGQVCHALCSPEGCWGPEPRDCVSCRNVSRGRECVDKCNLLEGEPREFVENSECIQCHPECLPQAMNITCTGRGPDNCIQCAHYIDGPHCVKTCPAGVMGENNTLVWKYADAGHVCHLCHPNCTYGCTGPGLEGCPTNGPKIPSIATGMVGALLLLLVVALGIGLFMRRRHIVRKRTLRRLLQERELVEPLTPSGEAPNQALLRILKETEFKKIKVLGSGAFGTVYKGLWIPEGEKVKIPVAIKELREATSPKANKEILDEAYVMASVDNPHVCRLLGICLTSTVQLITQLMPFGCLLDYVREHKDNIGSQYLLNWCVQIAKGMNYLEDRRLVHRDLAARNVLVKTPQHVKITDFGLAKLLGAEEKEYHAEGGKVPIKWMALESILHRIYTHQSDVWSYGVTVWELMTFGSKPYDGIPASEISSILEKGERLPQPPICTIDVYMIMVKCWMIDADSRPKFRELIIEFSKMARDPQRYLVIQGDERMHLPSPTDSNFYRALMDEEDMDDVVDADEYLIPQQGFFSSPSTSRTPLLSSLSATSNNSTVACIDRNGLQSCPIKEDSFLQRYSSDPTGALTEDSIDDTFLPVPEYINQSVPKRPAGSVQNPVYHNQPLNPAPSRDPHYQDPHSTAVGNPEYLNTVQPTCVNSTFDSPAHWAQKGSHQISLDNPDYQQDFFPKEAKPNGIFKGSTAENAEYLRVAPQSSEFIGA
Another experiment concerns N87. Description: Proliferation inhibition assay in vitro, N87 (CellTiter-Glo). It is filed as cell-based. To be noted: Homo sapiens; 72 hours; read-out: IC50(nM) cell N87. In short, it runs like this: (§2)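 Cells were seeded at 8.8×10^4 cells/mL for BT-474 or 6.6×10^4 cells/mL for N87 and grown overnight. Compound was added at 9 concentrations in duplicate for 72 h at 37 °C, 5% CO2. Viability was measured by CellTiter-Glo.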
(In general: Cellular ATP, detected with luciferase, serves as a proxy for viable cell number.)

In a further experiment the test system is BT-474. Nature of the experiment: Proliferation inhibition assay in vitro, BT-474 (CellTiter-Glo). It is filed as cell-based. The note with it: Homo sapiens, 72 hours, read-out: IC50(nM) cell BT-474. In short, it runs like this: as §2
Setting [1] is: ATP 4 μM, read-out: Kinase IC50 (nM) in vitro ErbB2.
Where [2] appears, read: ATP 1.65 μM, read-out: Kinase IC50 (nM) in vitro EGFR.

This note sets out measurements from patent US10828305B2 (SHANGHAI PHARMACEUTICALS HOLDING CO., LTD., priority 2016, dated 2020).

Where two headings read alike, the source gives them in different places.

Chain of ErbB2 kinase (P04626 23-1255): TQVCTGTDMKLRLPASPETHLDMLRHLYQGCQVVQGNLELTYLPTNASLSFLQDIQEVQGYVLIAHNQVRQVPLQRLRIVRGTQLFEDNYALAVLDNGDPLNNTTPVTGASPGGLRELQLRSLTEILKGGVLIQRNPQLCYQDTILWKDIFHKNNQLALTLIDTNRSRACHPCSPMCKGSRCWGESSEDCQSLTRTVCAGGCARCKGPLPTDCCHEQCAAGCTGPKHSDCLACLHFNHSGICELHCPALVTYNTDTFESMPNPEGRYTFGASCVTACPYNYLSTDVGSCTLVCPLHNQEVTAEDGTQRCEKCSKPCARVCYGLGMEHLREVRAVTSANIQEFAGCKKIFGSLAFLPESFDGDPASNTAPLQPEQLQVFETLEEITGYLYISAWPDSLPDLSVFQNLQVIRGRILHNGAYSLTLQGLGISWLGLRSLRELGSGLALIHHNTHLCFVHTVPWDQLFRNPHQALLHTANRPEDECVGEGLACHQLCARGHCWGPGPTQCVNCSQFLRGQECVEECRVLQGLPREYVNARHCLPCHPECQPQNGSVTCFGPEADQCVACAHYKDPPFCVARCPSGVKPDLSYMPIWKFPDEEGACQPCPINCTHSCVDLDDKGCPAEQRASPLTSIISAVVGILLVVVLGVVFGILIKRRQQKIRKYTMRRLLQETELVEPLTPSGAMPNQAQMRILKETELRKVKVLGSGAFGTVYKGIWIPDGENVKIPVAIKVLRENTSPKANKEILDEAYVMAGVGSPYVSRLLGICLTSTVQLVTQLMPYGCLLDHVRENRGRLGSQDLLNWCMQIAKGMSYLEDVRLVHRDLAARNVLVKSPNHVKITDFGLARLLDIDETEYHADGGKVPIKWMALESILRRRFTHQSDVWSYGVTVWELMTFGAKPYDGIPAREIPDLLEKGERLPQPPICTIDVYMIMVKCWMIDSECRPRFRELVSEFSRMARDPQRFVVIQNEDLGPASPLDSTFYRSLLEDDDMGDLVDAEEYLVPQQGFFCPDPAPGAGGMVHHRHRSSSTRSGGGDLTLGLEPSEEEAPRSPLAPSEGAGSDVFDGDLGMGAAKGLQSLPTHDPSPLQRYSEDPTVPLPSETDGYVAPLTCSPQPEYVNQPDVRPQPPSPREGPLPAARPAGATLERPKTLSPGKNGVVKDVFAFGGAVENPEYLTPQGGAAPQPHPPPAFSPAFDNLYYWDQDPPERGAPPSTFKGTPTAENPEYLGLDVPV

As to `Cc1cc(Nc2ncnc3ccc(NC4=NC5(CO4)CC(F)(F)C5)cc23)ccc1Oc1cc2nncn2cn1` [Embodiment 48, N^4-(4-([1,2,4]triazolo[4,3-c]pyrimidin-7-yloxy)-3-methylphenyl)-N^6-(2,2-difluoro-7-oxa-5-azaspiro[3.4]oct-5-en-6-yl)quinazoline-4,6-diamine], the IC50 was 1.3 nM on ErbB2 kinase (setting [1]), 9.4 nM at EGFR kinase (setting [2]), 64 nM in the experiment on N87 and 42.2 nM with BT-474.
Take `CCNC(=O)NC/C=C/c1ccc2ncnc(Nc3ccc(Oc4cc5nncn5cn4)c(C)c3)c2c1` [Embodiment 49, (E)-1-(3-(4-((4-([1,2,4]triazolo[4,3-c]pyrimidin-7-yloxy)-3-methylphenyl)amino)quinazolin-6-yl)allyl)-3-ethylurea]: the IC50 was 1.85 nM at ErbB2 kinase (setting [1]), 28.1 nM at EGFR kinase (setting [2]), 271 nM with N87 and 33.4 nM in the experiment on BT-474.
Regarding `CCNC(=O)Nc1cccc(-c2ccc3ncnc(Nc4ccc(Oc5cc6nncn6cn5)c(C)c4)c3c2)c1` [Embodiment 50, 1-(3-(4-((4-([1,2,4]triazolo[4,3-c]pyrimidin-7-yloxy)-3-methylphenyl)amino)quinazolin-6-yl)phenyl)-3-ethylurea], the IC50 came to 3.6 nM on ErbB2 kinase (setting [1]), 27.8 nM on EGFR kinase (setting [2]), 116 nM with N87 and 104 nM in the experiment with BT-474.
Turning to `Cc1cc(Nc2ncnc3ccc(-c4cccc(NC(=O)/C=C/c5cccnc5)c4)cc23)ccc1Oc1cc2nncn2cn1` [Embodiment 51, (E)-N-(3-(4-((4-([1,2,4]triazolo[4,3-c]pyrimidin-7-yloxy)-3-methylphenyl)amino)quinazolin-6-yl)phenyl)-3-(pyridin-3-yl)acryiamide], the IC50 on ErbB2 kinase (setting [1]) came to 8.41 nM; on EGFR kinase (setting [2]), 47.1 nM; in the experiment with N87, 93.7 nM; with BT-474 it was 108 nM.
`C=CC(=O)Nc1cncc(-c2ccc3ncnc(Nc4ccc(Oc5cc6nncn6cn5)c(C)c4)c3c2)c1` [Embodiment 52, N-(5-(4-((4-([1,2,4]triazolo[4,3-c]pyrimidin-7-yloxy)-3-methylphenyl)amino)quinazolin-6-yl)pyridin-3-yl)acrylamide]: the IC50 on ErbB2 kinase (setting [1]) is 2.35 nM; on EGFR kinase (setting [2]), 21.6 nM; with N87, 117 nM; in the experiment with BT-474 it was 30.4 nM.
On the same counts, the results for `C=CC(=O)NC/C=C/c1ccc2ncnc(Nc3ccc(Oc4cc5nncn5cn4)c(C)c3)c2c1` [Embodiment 53, (E)-N-(3-(4-((4-([1,2,4]triazolo[4,3-c]pyrimidin-7-yloxy)-3-methylphenyl)amino)quinazolin-6-yl)allyl)acrylamide] are 3.58 nM, 57.9 nM, 6.2 nM and 5.9 nM.
On the same counts, the results for `C=CC(=O)Nc1ccc(-c2ccc3ncnc(Nc4ccc(Oc5cc6nncn6cn5)c(C)c4)c3c2)cn1` [Embodiment 54, N-(5-(4-((4-([1,2,4]triazolo[4,3-c]pyrimidin-7-yloxy)-3-methylphenyl)amino)quinazolin-6-yl)pyridin-2-yl)acrylamide] are 6.4 nM, 370 nM, 150 nM and 32.8 nM.
Regarding `C=CC(=O)Nc1cc(-c2ccc3ncnc(Nc4ccc(Oc5cc6nncn6cn5)c(C)c4)c3c2)ccn1` [Embodiment 55, N-(4-(4-((4-([1,2,4]triazolo[4,3-c]pyrimidin-7-yloxy)-3-methylphenyl)amino)quinazolin-6-yl)pyridin-2-yl)acrylamide], the IC50 on ErbB2 kinase (setting [1]) is 1 nM; at EGFR kinase (setting [2]), 15.9 nM; with N87, 122 nM; in the experiment on BT-474, 28.4 nM.
On the same counts, the results for `C=CC(=O)Nc1ccc(-c2ccc3ncnc(Nc4ccc(Oc5cc6nncn6cn5)c(C)c4)c3c2)c(C)n1` [Embodiment 56, N-(5-(4-((4-([1,2,4]triazolo[4,3-c]pyrimidin-7-yloxy)-3-methylphenyl)amino)quinazolin-6-yl)-6-methylpyridin-2-yl)acrylamide] are 34 nM, 2450 nM, 466 nM and 35.4 nM.
As to `Cc1cc(Nc2ncnc3ccc(NC(=O)/C=C/CN(C)C)cc23)ccc1Oc1cc2nncn2cn1` [Embodiment 57, (E)-N-(4-((4-([1,2,4]triazolo[4,3-c]pyrimidin-7-yloxy)-3-methylphenyl)amino)quinazolin-6-yl)-4-(dimethylamino)-2-butenamide], the IC50 on ErbB2 kinase (setting [1]) amounted to 1.7 nM; at EGFR kinase (setting [2]), 2.7 nM; in the experiment on N87, 12.8 nM; with BT-474 it was 5.6 nM.
On the same counts, the results for `Cc1cc(Nc2ncnc3ccc(NC(=O)C4CC(Br)=NO4)cc23)ccc1Oc1cc2nncn2cn1` (centres unmarked) [Embodiment 58, N-(4-((4-([1,2,4]triazolo[4,3-c]pyrimidin-7-yloxy)-3-methylphenyl)amino)quinazolin-6-yl)-3-bromo-4,5-dihydroisoxazol-5-carboxamide] are 5.4 nM, 206 nM, 192 nM and 352 nM.
On the same counts, the results for `Cc1cc(Nc2ncnc3ccc(-c4ccc(CN(C)C)o4)cc23)ccc1Oc1cc2nncn2cn1` [Embodiment 59, N-(4-([1,2,4]triazolo[4,3-c]pyrimidin-7-yloxy)-3-methylphenyl)-6-(5-((dimethylamino)methyl)furan-2-yl)-4-aminoquinazoline] are 5.7 nM, 40.2 nM, 61.1 nM and 281 nM.
For `Cc1cc(Nc2ncnc3ccc(-c4ccc(CO)o4)cc23)ccc1Oc1cc2nncn2cn1` [Embodiment 60, (5-(4-((4-([1,2,4]triazolo[4,3-c]pyrimidin-7-yloxy)-3-methylphenyl)amino)quinazolin-6-yl)furan-2-yl)methanol], the IC50 at ErbB2 kinase (setting [1]) was 1.1 nM; at EGFR kinase (setting [2]), 15.6 nM; with N87 it was 23.4 nM; in the experiment on BT-474 it was 108 nM.
For the molecule `Cc1cc(Nc2ncnc3ccc(-c4ccc(CN5CCN(C)CC5)o4)cc23)ccc1Oc1cc2nncn2cn1` [Embodiment 61], the IC50 is 6 nM at ErbB2 kinase (setting [1]), 44.7 nM at EGFR kinase (setting [2]), 35.4 nM with N87 and 48.9 nM in the experiment with BT-474.
With `Cc1cc(Nc2ncnc3ccc(-c4cc(CNCCS(C)(=O)=O)co4)cc23)ccc1Oc1cc2nncn2cn1` [Embodiment 62], the IC50 on ErbB2 kinase (setting [1]) was 1.5 nM; on EGFR kinase (setting [2]), 14.2 nM; in the experiment with N87 it was 72.4 nM; with BT-474, 30 nM.
`Cc1cc(Nc2ncnc3ccc(-c4ccc(CN5CCS(=O)(=O)CC5)o4)cc23)ccc1Oc1cc2nncn2cn1` [Embodiment 63]: the IC50 on ErbB2 kinase (setting [1]) turned out to be 1.8 nM; at EGFR kinase (setting [2]) it was 29.5 nM; in the experiment with N87 it was 13 nM; in the experiment with BT-474 it was 12.7 nM.
As to `Cc1cc(Nc2ncnc3ccc(-c4cc(CN5CCS(=O)(=O)CC5)co4)cc23)ccc1Oc1cc2nncn2cn1` [Embodiment 64], the IC50 on ErbB2 kinase (setting [1]) amounted to 1.6 nM; at EGFR kinase (setting [2]) it was 29 nM; in the experiment on N87, 42.7 nM; with BT-474 it was 27.6 nM.
Regarding `Cc1cc(Nc2ncnc3ccc(-c4ccc(CNCCS(N)(=O)=O)o4)cc23)ccc1Oc1cc2nncn2cn1` [Embodiment 65], the IC50 at ErbB2 kinase (setting [1]) was 1 nM; at EGFR kinase (setting [2]), 3.8 nM; in the experiment with N87, 63.2 nM; in the experiment on BT-474, 19.8 nM.
For the molecule `Cc1cc(Nc2ncnc3ccc(NC(=O)Oc4ccccc4)cc23)ccc1Oc1cc2nncn2cn1` [Embodiment 66], the IC50 came to 12.9 nM against ErbB2 kinase, 567 nM on EGFR kinase, 487 nM in the experiment with N87 and 275 nM in the experiment with BT-474.
With `Cc1cc(NC(=O)Nc2ccc3ncnc(Nc4ccc(Oc5cc6nncn6cn5)c(C)c4)c3c2)no1` [Embodiment 67, 1-(4-((4-([1,2,4]triazolo[4,3-c]pyrimidin-7-yloxy)-3-methylphenyl)amino)quinazolin-6-yl)-3-(5-methylisoxazol-3-yl)urea], the IC50 stood at 3.2 nM at ErbB2 kinase (setting [1]), 157 nM at EGFR kinase (setting [2]), 264 nM in the experiment on N87 and 177 nM in the experiment with BT-474.
On the same counts, the results for `Cc1cc(Nc2ncnc3ccc(-c4cccc(CNCCS(C)(=O)=O)c4)cc23)ccc1Oc1cc2nncn2cn1` [Embodiment 68] are 2.2 nM, 5.4 nM, 52 nM and 38.7 nM.
As to `Cc1cc(NC(=O)Nc2ccc3ncnc(Nc4ccc(Oc5cc6nncn6cn5)c(C)c4)c3c2)n[nH]1` [Embodiment 70, 1-(4-((4-([1,2,4]triazolo[4,3-c]pyrimidin-7-yloxy)-3-methylphenyl)amino)quinazolin-6-yl)-3-(5-methyl-1H-pyrazol-3-yl)urea], the IC50 on ErbB2 kinase (setting [1]) was 3.3 nM; at EGFR kinase (setting [2]), 73.4 nM; with N87, 852 nM; in the experiment on BT-474 it was 172 nM.
For the molecule `C=C(F)C(=O)Nc1cccc(-c2ccc3ncnc(Nc4ccc(Oc5cc6nncn6cn5)c(C)c4)c3c2)c1` [Embodiment 71, N-(3-(4-((4-([1,2,4]triazolo[4,3-c]pyrimidin-7-yloxy)-3-methylphenyl)amino)quinazolin-6-yl)phenyl)-2-fluoroacrylamide], the IC50 at ErbB2 kinase (setting [1]) came to 3.5 nM; on EGFR kinase (setting [2]), 20.7 nM; in the experiment on N87, 66.4 nM; in the experiment on BT-474, 42.7 nM.

Broadly, the IC50 is the concentration at which inhibition is half-maximal.
